Data from the NIST ThermoML archive (doi:10.1021/je9005823).

Experiments:
[1] = refractive index (Na D-line) (dimensionless); settings: 298.15 K; 101.33 kPa; Liquid
[2] = 298.15 K, 101 kPa, Liquid; for viscosity: Capillary tube (Ostwald / Ubbelohde) method
[3] = xn = mol fraction of the nth substance listed; settings: 298.15 K, 101 kPa, Liquid; for viscosity: Capillary tube (Ostwald / Ubbelohde) method
[4] = refractive index (Na D-line) (dimensionless); xn = mol fraction of the nth substance listed; settings: 298.15 K, 101 kPa, Liquid

CC(C)O [propan-2-ol]
Settings	mass density [kg/m3]	refractive index	viscosity [mPa·s]
[1]	–	1.3745	–
[2]	780.98	–	2.044

CCCCCC(C)O (configuration not stated) [2-heptanol] + CC(=O)c1ccccc1
Settings	mass density, [3] [kg/m3]	refractive index, [4]	viscosity, [3] [mPa·s]
x2 = 0	813.33	1.4188	5.33
x2 = 0.0913	829.12	1.4489	4.282
x2 = 0.1631	841.87	1.4748	3.572
x2 = 0.2637	860.39	1.5079	2.763
x2 = 0.3425	875.43	1.5298	2.296
x2 = 0.4374	894.2	1.5535	1.908
x2 = 0.5387	915.07	–	1.662
x2 = 0.6446	937.92	–	1.55
x2 = 0.7571	963.35	–	1.548
x2 = 0.8733	991.14	–	1.606
x2 = 0.9542	1011.38	1.5486	1.651

CCCC(C)O (configuration not stated) [pentan-2-ol] + CC(=O)c1ccccc1
x2 = 0
Settings	mass density [kg/m3]	refractive index	viscosity [mPa·s]
[3]	805.24	–	3.478
[4]	–	1.4045	–

CC(C)O [propan-2-ol] + CC(=O)c1ccccc1
x2 = 0
Settings	mass density [kg/m3]	refractive index	viscosity [mPa·s]
[3]	780.98	–	2.044
[4]	–	1.3745	–

CCCC(C)O (configuration not stated) [pentan-2-ol]
Settings	mass density [kg/m3]	refractive index	viscosity [mPa·s]
[1]	–	1.4045	–
[2]	805.24	–	3.478

CC(=O)c1ccccc1 [acetophenone] + CCCCCC(C)O
x1 = 1
Settings	mass density [kg/m3]	refractive index	viscosity [mPa·s]
[3]	1023.3	–	1.678
[4]	–	1.5308	–

CCCCCC(C)O (configuration not stated) [2-heptanol]
Settings	mass density [kg/m3]	refractive index	viscosity [mPa·s]
[1]	–	1.4188	–
[2]	813.33	–	5.33

CC(=O)c1ccccc1 [acetophenone] + CCCCC(C)O
x1 = 1
Settings	mass density [kg/m3]	refractive index	viscosity [mPa·s]
[3]	1023.3	–	1.678
[4]	–	1.5308	–

CCC(C)O (configuration not stated) [butan-2-ol]
Settings	mass density [kg/m3]	refractive index	viscosity [mPa·s]
[1]	–	1.3946	–
[2]	802.56	–	3.132

CC(=O)c1ccccc1 [acetophenone] + CCCC(C)O
Settings	mass density, [3] [kg/m3]	refractive index, [4]	viscosity, [3] [mPa·s]
x1 = 0.0917	826.19	1.4627	2.767
x1 = 0.1629	842.36	1.4972	2.314
x1 = 0.2502	862.04	1.5257	1.875
x1 = 0.3416	882.41	1.5487	1.626
x1 = 0.4371	903.49	–	1.502
x1 = 0.5387	925.71	–	1.489
x1 = 0.6442	948.51	–	1.534
x1 = 0.7547	972.08	–	1.605
x1 = 0.8716	996.7	1.547	1.658
x1 = 0.949	1012.77	1.539	1.669
x1 = 1	1023.3	1.5308	1.678

CCCCC(C)O (configuration not stated) [2-hexanol]
Settings	mass density [kg/m3]	refractive index	viscosity [mPa·s]
[1]	–	1.4116	–
[2]	810.14	–	4.1

CC(=O)c1ccccc1 [acetophenone] + CC(C)O
Settings	mass density, [3] [kg/m3]	refractive index, [4]	viscosity, [3] [mPa·s]
x1 = 0.0892	813.69	1.3971	1.678
x1 = 0.1658	839.2	1.4181	1.503
x1 = 0.2517	865.44	1.4393	1.399
x1 = 0.3432	890.91	1.4601	1.354
x1 = 0.4297	913.04	1.4775	1.352
x1 = 0.5345	937.56	1.4953	1.367
x1 = 0.6466	961.31	1.5099	1.421
x1 = 0.7561	982.35	1.5195	1.484
x1 = 0.8635	1001.26	1.5255	1.556
x1 = 0.9568	1016.5	1.5276	1.626
x1 = 1	1023.3	1.5308	1.678

CC(=O)c1ccccc1 [acetophenone] + CCC(C)O
Settings	mass density, [3] [kg/m3]	refractive index, [4]	viscosity, [3] [mPa·s]
x1 = 0.1031	830.43	1.4255	2.345
x1 = 0.1635	846.12	1.4443	2.009
x1 = 0.2517	868.13	1.4669	1.705
x1 = 0.3422	889.8	1.4877	1.544
x1 = 0.4361	911.31	1.5044	1.461
x1 = 0.533	932.56	1.5189	1.46
x1 = 0.6461	956.27	1.5314	1.506
x1 = 0.7517	977.34	1.5367	1.562
x1 = 0.8675	999.34	1.5351	1.617
x1 = 0.9462	1013.72	1.5336	1.65
x1 = 1	1023.3	1.5308	1.678

CCCCC(C)O (configuration not stated) [2-hexanol] + CC(=O)c1ccccc1
Settings	mass density, [3] [kg/m3]	refractive index, [4]	viscosity, [3] [mPa·s]
x2 = 0	810.14	1.4116	4.1
x2 = 0.0902	827.84	1.4485	3.193
x2 = 0.1678	843.27	1.4782	2.658
x2 = 0.2536	860.63	1.5037	2.16
x2 = 0.34	878.39	1.5247	1.802
x2 = 0.4382	898.86	1.5425	1.506
x2 = 0.5395	920.38	–	1.344
x2 = 0.6451	943.23	–	1.273
x2 = 0.75	966.34	–	1.313
x2 = 0.8628	991.72	1.5505	1.399
x2 = 0.9511	1011.93	1.5394	1.556

CCC(C)O (configuration not stated) [butan-2-ol] + CC(=O)c1ccccc1
x2 = 0
Settings	mass density [kg/m3]	refractive index	viscosity [mPa·s]
[3]	802.56	–	3.132
[4]	–	1.3946	–

CC(=O)c1ccccc1 [acetophenone]
Settings	mass density [kg/m3]	refractive index	viscosity [mPa·s]
[1]	–	1.5308	–
[2]	1023.3	–	1.678
